Measurements: patent US9629828B2, “Methods of treating traveler's diarrhea and hepatic encephalopathy” (priority 2008, dated 2017)
“And” between values parts separate entries of the source, which are not always exact repeats. Identical values can stand only once. “Also recorded” adds a separate entry of the source.

Assays:
[1] = system: subjects in remission from hepatic encephalopathy (HE); assay: First study: HE-related, HE-caused and all-cause hospitalization; format: in vivo, human; settings: for Probability of no HE-related hospitalization: Kaplan-Meier; for Probability of no HE-related hospitalization / Cumulative number of events (HE-related hospitalization) / Event probability (HE-related hospitalization during the treatment interval) / Number of events (HE-related hospitalization): ITT, N = 140
Text: The analysis of time to first HE-related hospitalization was based on the comparison of time to hospitalization between rifaximin and placebo.
FIG. 9 illustrates time to first HE-related hospitalization (e.g., hospitalization directly resulting from HE or hospitalization caused by HE) by treatment group in the ITT population in the first study. Table 19 presents estimates of the proportions of subjects who had their first HE-related hospitalization over the course of the Treatment Period and results of statistical analyses. Subjects who discontinued prior to hospitalization due to HE and prior to completion of the 6-month treatment period were censored at the time of discontinuation. […] This hazard ratio represents a 50% reduction, when compared with placebo, in the risk of hospitalization due to HE during the 6-month treatment period.
FIG. 5 illustrates time to first HE-caused hospitalizations by treatment group in the first study.

rat hepatocyte = format: cell-based
[2] = system: subjects with a history of recurrent, overt, episodic HE; settings: human, in vivo
Text: At the time of this interim analysis, TEAEs were reported in 230 subjects (86.5%). The most common TEAEs (e.g., in ≧10% of total subjects) experienced by subjects were the following: peripheral edema (15.8%); urinary tract infection and nausea (12.8% each); and abdominal pain and ascites (10.5% each).
Treatment-emergent SAEs were experienced by 47.4% of subjects.

clinical = settings: male, human, in vivo
[3] = system: subjects with a history of recurrent, overt, episodic HE; assay: Second study (3002, open-label extension): breakthrough overt HE; format: in vivo, human
Description: Unlike the first study, subjects were not required to withdraw from the study after experiencing a breakthrough overt HE episode.
Conn scores and asterixis grades were assessed during the course of the study.
Therefore, the incidence of breakthrough overt HE over time during rifaximin therapy was evaluated. Table 24 presents breakthrough overt HE episodes by total number of HE episodes during the course of the study.
Most subjects in the second study (152 of 266) were also in the first study. […] The numbers of overt HE episodes experienced during the 6-month or 12-month intervals prior to the first study or prior to the second study were known.

P-glycoprotein = P-glycoprotein (Homo sapiens, UniProt P08183); assay: In vitro P-glycoprotein substrate study (efflux ratio, verapamil); format: in vitro ADME
Text: Therefore, no clinically significant interactions with other drugs affected by P-glycoprotein are anticipated.

[4] = system: subjects in remission from hepatic encephalopathy (HE); assay: First study: HE-related, HE-caused and all-cause hospitalization; format: in vivo, human
[5] = system: subjects in remission from hepatic encephalopathy (HE); assay: First study: Conn score (time to any increase, change from baseline); format: in vivo, human; settings: for Event probability (increase in Conn score during the treatment interval) / Probability of no increase in Conn score: Kaplan-Meier; for Event probability (increase in Conn score during the treatment interval) / Probability of no increase in Conn score / Cumulative number of events (increase in Conn score) / Number of events (increase in Conn score): ITT, N = 140
Text: The scale used in the Conn scoring system is provided below. • Grade 0=No personality or behavioral abnormality detected • Grade 1=Trivial lack of awareness, euphoria or anxiety; shortened attention span; impairment of addition or subtraction • Grade 2=Lethargy; disorientation for time; obvious personality change; inappropriate behavior • Grade 3=Somnolence to semi-stupor, responsive to stimuli; confused; gross disorientation; bizarre behavior • Grade 4=Coma; unable to test mental state
Change in mental status was measured by the Conn score (also known as the West Haven score). The Conn score has been widely used as a measure of mental state in HE studies and is based on the criteria of Parsons-Smith as modified by Conn. The scale used in the Conn scoring system is described above.
Subjects who discontinued prior to experiencing an increase in Conn score and prior to completion of the 6-month treatment period were censored at the time of discontinuation.

Shigella flexneri 2a = assay: Open-label Shigella flexneri 2a challenge study; format: in vivo, human; settings: 13 treated subjects, 200 mg every 8 hours 3 days
[6] = treatment interval 0 to <28 days
[7] = treatment interval 28 to <56 days
[8] = treatment interval 56 to <84 days
[9] = treatment interval 84 to <140 days
[10] = treatment interval 140 to <168 days

Chain of P-glycoprotein (P08183 whole entry): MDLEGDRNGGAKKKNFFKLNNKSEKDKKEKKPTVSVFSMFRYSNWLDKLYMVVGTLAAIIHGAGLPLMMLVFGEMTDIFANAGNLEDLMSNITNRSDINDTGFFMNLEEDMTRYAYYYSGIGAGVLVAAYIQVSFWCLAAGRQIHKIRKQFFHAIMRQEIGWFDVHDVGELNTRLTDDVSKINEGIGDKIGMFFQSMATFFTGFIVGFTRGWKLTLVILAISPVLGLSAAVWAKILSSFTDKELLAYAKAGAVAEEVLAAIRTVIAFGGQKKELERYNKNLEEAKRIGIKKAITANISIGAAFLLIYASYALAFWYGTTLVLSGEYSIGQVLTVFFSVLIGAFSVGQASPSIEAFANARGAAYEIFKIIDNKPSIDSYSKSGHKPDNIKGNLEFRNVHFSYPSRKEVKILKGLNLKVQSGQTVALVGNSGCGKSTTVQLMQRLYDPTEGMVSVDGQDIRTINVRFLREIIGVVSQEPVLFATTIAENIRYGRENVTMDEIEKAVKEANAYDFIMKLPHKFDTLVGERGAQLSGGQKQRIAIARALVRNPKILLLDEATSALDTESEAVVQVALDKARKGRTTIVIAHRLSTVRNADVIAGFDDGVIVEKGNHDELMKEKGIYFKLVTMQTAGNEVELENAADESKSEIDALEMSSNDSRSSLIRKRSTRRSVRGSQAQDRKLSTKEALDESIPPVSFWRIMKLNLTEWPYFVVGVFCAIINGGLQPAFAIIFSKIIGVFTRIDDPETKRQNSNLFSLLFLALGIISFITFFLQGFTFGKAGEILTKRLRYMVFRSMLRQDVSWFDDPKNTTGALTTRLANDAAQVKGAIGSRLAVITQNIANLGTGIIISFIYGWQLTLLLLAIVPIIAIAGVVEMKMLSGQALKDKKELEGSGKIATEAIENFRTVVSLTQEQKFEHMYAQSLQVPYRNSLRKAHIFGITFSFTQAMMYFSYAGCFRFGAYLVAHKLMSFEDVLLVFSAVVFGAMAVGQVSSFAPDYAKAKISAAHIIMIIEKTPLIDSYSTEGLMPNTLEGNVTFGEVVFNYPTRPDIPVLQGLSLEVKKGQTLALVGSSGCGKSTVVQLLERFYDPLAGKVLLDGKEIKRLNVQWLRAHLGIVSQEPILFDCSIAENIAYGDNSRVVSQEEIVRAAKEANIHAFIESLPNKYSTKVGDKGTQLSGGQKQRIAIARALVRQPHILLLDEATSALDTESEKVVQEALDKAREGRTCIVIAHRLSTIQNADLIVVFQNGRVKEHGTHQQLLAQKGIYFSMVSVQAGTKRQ

CO[C@H]1/C=C/O[C@@]2(C)Oc3c(C)c(O)c4c(O)c(c5c(nc6cc(C)ccn65)c4c3C2=O)NC(=O)/C(C)=C\C=C\[C@H](C)[C@H](O)[C@@H](C)[C@@H](O)[C@@H](C)[C@H](OC(C)=O)[C@@H]1C [rifaximin, (2S,16Z,18E,20S,21S,22R,23R,24R,25 S,26S,27S,28E)-5,6,21,23,25-pentahydroxy-27-methoxy-2,4,11,16,20,22,24,26-octamethyl-2,7-(epoxypentadeca-[1,11,13]trienimino)benzofuro[4,5-e]pyrido[1,2-á]-benzimidazole-1,15(2H)-dione,25-acetate]
reduction in risk of HE-caused hospitalization vs placebo ([1]; 6-month treatment): 56%
reduction in risk of HE-related hospitalization vs placebo ([1]; 6-month treatment): 50%
Probability of no HE-related hospitalization [1, 6]: 1.0000
Probability of no HE-related hospitalization [1, 7]: 0.9711
Probability of no HE-related hospitalization [1, 8]: 0.9411
Probability of no HE-related hospitalization [1, 9]: 0.0904
Probability of no HE-related hospitalization [1, 10]: 0.8665
Probability of no HE-related hospitalization ([1]; treatment interval ≧168 days): 0.8475
Survival ([1]; Table 4, N = 140, days r11-r21 as E901): 1.0000 and 0.9564 and 0.9258 and 0.8848 and 0.8403 and 0.8108
Survival ([1]; Table 17, days r10-r15 as E2201): 1.0000 and 0.9711 and 0.9411 and 0.9094 and 0.8665 and 0.8475
HE-caused hospitalization rate ([1]; first study): 0.30 events/PEY
HE-related hospitalization rate lower than placebo ([1]; in vivo): 51%
reduction in risk of all-cause hospitalization vs placebo ([1]; in vivo): 30%
subjects with HE-caused hospitalizations ([1]; in vivo): 15 of 140
subjects with all-cause hospitalization ([1]; in vivo): 46 of 140
time to first HE related hospitalization vs placebo (FIG. 3) ([1]; in vivo): increased time to hospitalization
HE-related hospitalization rate ([1]; normalized to exposure): 0.38 event/PEY
Cumulative number of events (HE-related hospitalization) [1, 6]: 4
Event probability (HE-related hospitalization during the treatment interval) [1, 6]: 0.03
Number of events (HE-related hospitalization) [1, 6]: 4
Cumulative number of events (HE-related hospitalization) [1, 7]: 8
Event probability (HE-related hospitalization during the treatment interval) [1, 7]: 0.03
Number of events (HE-related hospitalization) [1, 7]: 4
Cumulative number of events (HE-related hospitalization) [1, 8]: 12
Event probability (HE-related hospitalization during the treatment interval) [1, 8]: 0.03
Number of events (HE-related hospitalization) [1, 8]: 4
Cumulative number of events (HE-related hospitalization) [1, 9]: 17
Event probability (HE-related hospitalization during the treatment interval) [1, 9]: 0.05
Number of events (HE-related hospitalization) [1, 9]: 5
Cumulative number of events (HE-related hospitalization) [1, 10]: 19
Event probability (HE-related hospitalization during the treatment interval) [1, 10]: 0.02
Number of events (HE-related hospitalization) [1, 10]: 2
Cumulative number of events (HE-related hospitalization) ([1]; treatment interval ≧168 days): 19
Event probability (HE-related hospitalization during the treatment interval) ([1]; treatment interval ≧168 days): 0
Number of events (HE-related hospitalization) ([1]; treatment interval ≧168 days): 0
genotoxicity (rat hepatocyte): not genotoxic
TEAE abdominal pain [2]: 10.5%
TEAE ascites [2]: 10.5%
TEAE nausea [2]: 12.8%
TEAE peripheral edema [2]: 15.8%
TEAE urinary tract infection [2]: 12.8%
subjects with HE counted for the safety analyses [2]: 21.4%
subjects with TEAEs [2]: 86.5%
subjects with at least 1 severe TEAE [2]: 40.2%
subjects with treatment-emergent SAEs [2]: 47.4%
AUC(0-t) (clinical): 19.5 ± 16.5 ng·h/mL
Cmax (clinical): 4.3 ± 2.8 ng/mL
Tmax (clinical): 1.25 h
Subjects with ≧1 breakthrough overt HE episode ([3]; All Rifaximin N = 266): 72 (27.1) n (%)
Subjects with ≧1 breakthrough overt HE episode ([3]; Continuing Rifaximin N = 70): 18 (25.7) n (%)
Subjects with ≧1 breakthrough overt HE episode ([3]; New Rifaximin N = 196): 54 (27.6) n (%)
patients free of breakthrough ([3]; after almost 3 years): approximately 60%
subjects with 1 breakthrough HE episode ([3]; all rifaximin): 44 subjects
subjects with 2 breakthrough HE episodes ([3]; all rifaximin): 18 subjects
subjects with 3 or more breakthrough HE episodes ([3]; all rifaximin): Ten
reduction in risk of breakthrough HE, continuing subjects vs 3001 placebo ([3]; in vivo): 90%
subjects with breakthrough overt HE during rifaximin after crossover ([3]; in vivo): 15 of 82
rate of breakthrough HE episodes adjusted for exposure ([3]; new rifaximin subjects): 0.38 events/PEY
subjects with >2 HE episodes during rifaximin therapy ([3]; up to 840 days, first plus second study): 3.6%
P-glycoprotein substrate (P-glycoprotein): substrate of P-glycoprotein; also recorded: substrate for P-glycoprotein
all-cause hospitalization rate [4]: 0.92 events/PEY and 0.90 events/PEY
Event probability (increase in Conn score during the treatment interval) [5, 6]: 0.012
Probability of no increase in Conn score [5, 6]: 1.0000
Event probability (increase in Conn score during the treatment interval) [5, 7]: 0.04
Probability of no increase in Conn score [5, 7]: 0.8777
Event probability (increase in Conn score during the treatment interval) [5, 8]: 0.08
Probability of no increase in Conn score [5, 8]: 0.8407
Event probability (increase in Conn score during the treatment interval) [5, 9]: 0.05
Probability of no increase in Conn score [5, 9]: 0.7713
Event probability (increase in Conn score during the treatment interval) [5, 10]: 0
Probability of no increase in Conn score [5, 10]: 0.7302
Event probability (increase in Conn score during the treatment interval) ([5]; treatment interval ≧168 days): 0.03
Probability of no increase in Conn score ([5]; treatment interval ≧168 days): 0.7302
Survival ([5]; any increase in Conn score, days r10-r15 as E1001): 1.0000 and 0.8777 and 0.8407 and 0.7713 and 0.7302
subjects with Conn score changes of −1 or no change ([5]; baseline to end of treatment): 77.1%
prevention of worsening of Conn score, times versus placebo ([5]; in vivo): 2.46 times
reduction in risk of first worsening in Conn Score ([5]; in vivo): 54%
subjects with increases in Conn score ([5]; in vivo): 37 of 140
time to first increase in Conn scores vs placebo (FIG. 4) ([5]; in vivo): increased time to the first increase in Conn scores
Cumulative number of events (increase in Conn score) [5, 6]: 17
Number of events (increase in Conn score) [5, 6]: 17
Cumulative number of events (increase in Conn score) [5, 7]: 22
Number of events (increase in Conn score) [5, 7]: 5
Cumulative number of events (increase in Conn score) [5, 8]: 31
Number of events (increase in Conn score) [5, 8]: 9
Cumulative number of events (increase in Conn score) [5, 9]: 36
Number of events (increase in Conn score) [5, 9]: 5
Cumulative number of events (increase in Conn score) [5, 10]: 36
Number of events (increase in Conn score) [5, 10]: 0
Cumulative number of events (increase in Conn score) ([5]; treatment interval ≧168 days): 37
Number of events (increase in Conn score) ([5]; treatment interval ≧168 days): 1
rescue treatment with ciprofloxacin (Shigella flexneri 2a): eight subjects received rescue treatment
